Results reported in the supplement of paper PMC10627819.

How the values were obtained:
B. subtilis 168 [1] = experiment: fitness (endpoint OD595 vs no drug) (fraction); higher = more growth
In short: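 Cultures at OD595 0.01 were dispensed into 384-well plates in TSB, LB Lennox or CY and incubated at 37 °C. Every 30 min for 14 h, OD595 was read and corrected by the first reading. Fitness is the optical density at entry into stationary phase relative to the robust mean of no-drug control wells, capped at 1.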

B. subtilis 168 [2] = experiment: Bliss interaction score (quartile over a dose matrix) (fitness difference); higher = more antagonism (negative = synergy)
In short: (§1)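 The Bliss score subtracts expected fitness, the product of the single-drug fitness values, from observed fitness. Fitness is plate-normalised OD595 at entry into stationary phase, relative to the robust no-drug mean and capped at 1, with single-drug fitness inferred from combinations. Summaries are quartiles over technical, biological and donor/recipient replicates.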

S. aureus DSM 20231 = experiment: as above
In short: as §1

S. aureus Newman = experiment: as above
In short: as §1

S. pneumoniae D39V = experiment: as above
In short: as §1
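Wherever Bliss interaction score (quartile over a dose matrix) is given: first quartile when negative (synergy) and third quartile when positive (antagonism).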

CC[C@H]1OC(=O)[C@H](C)[C@@H](O[C@H]2C[C@@](C)(OC)[C@@H](O)[C@H](C)O2)[C@H](C)[C@@H](O[C@@H]2O[C@H](C)C[C@H](N(C)C)[C@H]2O)[C@](C)(O)C[C@@H](C)CN(C)[C@H](C)[C@@H](O)[C@]1(C)O [Azithromycin] + CCC(C)C1C(=O)NC(=C)C(=O)NC(C(=O)NC(CSCC(C(=O)N1)NC(=O)/C(=C/C)/NC(=O)C(C(C)CC)N)C(=O)NC2C(SCC(NC(=O)CNC(=O)C3CCCN3C2=O)C(=O)NC(CCCCN)C(=O)NC4C(SCC(NC(=O)CNC(=O)C(NC(=O)C(NC(=O)C(NC(=O)CNC4=O)C)CC(C)C)CCSC)C(=O)NC(CC(=O)N)C(=O)NC(CCSC)C(=O)NC(CCCCN)C(=O)NC5C(SCC6C(=O)NC(C(=O)NC(CSC(C(C(=O)N6)NC(=O)C(NC5=O)C)C)C(=O)NC(CO)C(=O)NC(C(C)CC)C(=O)NC(CC7=CN=CN7)C(=O)NC(C(C)C)C(=O)NC(=C)C(=O)NC(CCCCN)C(=O)O)CC8=CN=CN8)C)C)C)CC(C)C [Nisin]
fitness, B. subtilis 168 [1], main component drawn
Conditions | partner 0.5 µg/mL | partner 1 µg/mL | partner 2 µg/mL
first compound 0.25 µg/mL | 0.904 | 0.837 | 0.724
first compound 0.5 µg/mL | 0.862 | 0.805 | 0.636

fitness, B. subtilis 168 [1], one replicate, main component drawn
Conditions | partner 1.25 µg/mL | partner 1.6 µg/mL | partner 2.5 µg/mL | partner 3.2 µg/mL | partner 4 µg/mL | partner 5 µg/mL | partner 6.4 µg/mL | partner 8 µg/mL | partner 16 µg/mL
first compound 0.25 µg/mL | – | – | – | – | 0.0321 | – | – | 0.0145 | 0.0145
first compound 0.5 µg/mL | 0.889 | 0.611 | 0.0285 | 0.028 | 0.0372 | 0.0256 | 0.0317 | 0.0317 | 0.0189
first compound 1 µg/mL | 0.844 | 0.038 | 0.415 | 0.0169 | 0.0347 | 0.0235 | 0.0188 | 0.0359 | 0.0271
first compound 2 µg/mL | 0.358 | 0.023 | 0.0636 | 0.0193 | – | 0.0032 | 0.0113 | – | –

main component drawn
Conditions | Bliss interaction score
B. subtilis 168 [2] | 0.0397
S. aureus DSM 20231 | -0.195
S. aureus Newman | -0.113
S. pneumoniae D39V | -0.0414

CC[C@H]1OC(=O)[C@H](C)[C@@H](O[C@H]2C[C@@](C)(OC)[C@@H](O)[C@H](C)O2)[C@H](C)[C@@H](O[C@@H]2O[C@H](C)C[C@H](N(C)C)[C@H]2O)[C@](C)(O)C[C@@H](C)CN(C)[C@H](C)[C@@H](O)[C@]1(C)O [Azithromycin] + CN(C)C(=O)C(CCN1CCC(O)(c2ccc(Cl)cc2)CC1)(c1ccccc1)c1ccccc1 [Loperamide]
Conditions | fitness
B. subtilis 168 [1], first compound 1 µg/mL, partner 50 µg/mL | 0.041

Conditions | Bliss interaction score
B. subtilis 168 [2] | 0.137
S. aureus DSM 20231 | 0.344
S. aureus Newman | 0.101
S. pneumoniae D39V | 0.131

CC[C@H]1OC(=O)[C@H](C)[C@@H](O[C@H]2C[C@@](C)(OC)[C@@H](O)[C@H](C)O2)[C@H](C)[C@@H](O[C@@H]2O[C@H](C)C[C@H](N(C)C)[C@H]2O)[C@](C)(O)C[C@@H](C)CN(C)[C@H](C)[C@@H](O)[C@]1(C)O [Azithromycin] + CO[C@@H]1[C@@H](OC(N)=O)[C@@H](O)[C@H](Oc2ccc3c(O)c(NC(=O)c4ccc(O)c(CC=C(C)C)c4)c(=O)oc3c2C)OC1(C)C [Novobiocin]
fitness, B. subtilis 168 [1]
Conditions | partner 0.0125 µg/mL | partner 0.025 µg/mL | partner 0.05 µg/mL | partner 0.1 µg/mL | partner 0.2 µg/mL
first compound 0.25 µg/mL | 0.897 | 0.888 | 0.894 | 0.954 | 0.931
first compound 0.5 µg/mL | 0.867 | 0.814 | 0.868 | 0.865 | 0.878
first compound 1 µg/mL | 0.642 | 0.63 | – | – | –

fitness, B. subtilis 168 [1], one replicate
Conditions | first compound 0.5 µg/mL | first compound 1 µg/mL | first compound 2 µg/mL
partner 0.125 µg/mL | 0.772 | 0.765 | 0.347
partner 0.25 µg/mL | 0.781 | 0.597 | 0.167
partner 0.5 µg/mL | 0.507 | 0.473 | 0.0776

Conditions | Bliss interaction score
B. subtilis 168 [2] | 0.0746
S. aureus DSM 20231 | 0.0496
S. aureus Newman | 0.157
S. pneumoniae D39V | -0.0647

CC[C@H]1OC(=O)[C@H](C)[C@@H](O[C@H]2C[C@@](C)(OC)[C@@H](O)[C@H](C)O2)[C@H](C)[C@@H](O[C@@H]2O[C@H](C)C[C@H](N(C)C)[C@H]2O)[C@](C)(O)C[C@@H](C)CN(C)[C@H](C)[C@@H](O)[C@]1(C)O [Azithromycin] + C[C@H]1COc2c(N3CCN(C)CC3)c(F)cc3c(=O)c(C(=O)O)cn1c23 [Levofloxacin]
fitness, B. subtilis 168 [1]
Conditions | partner 0.002 µg/mL | partner 0.0039 µg/mL | partner 0.0078 µg/mL | partner 0.0312 µg/mL | partner 0.0625 µg/mL | partner 0.125 µg/mL
first compound 0.25 µg/mL | 0.96 | 0.945 | 0.969 | 0.0317 | 0.0311 | 0.0281
first compound 0.5 µg/mL | 0.848 | 0.808 | 0.862 | 0.0211 | 0.0396 | 0.0302
first compound 1 µg/mL | – | – | – | 0.0198 | 0.0226 | 0.0241

fitness, B. subtilis 168 [1], one replicate
Conditions | first compound 0.5 µg/mL | first compound 1 µg/mL | first compound 2 µg/mL
partner 0.001 µg/mL | 0.925 | 0.906 | 0.209
partner 0.002 µg/mL | – | – | 0.029
partner 0.0039 µg/mL | – | – | 0.0299

Conditions | Bliss interaction score
B. subtilis 168 [2] | 0.0413
S. aureus DSM 20231 | 0.0911
S. aureus Newman | 0.0787
S. pneumoniae D39V | 0.0528

CC[C@H]1OC(=O)[C@H](C)[C@@H](O[C@H]2C[C@@](C)(OC)[C@@H](O)[C@H](C)O2)[C@H](C)[C@@H](O[C@@H]2O[C@H](C)C[C@H](N(C)C)[C@H]2O)[C@](C)(O)C[C@@H](C)CN(C)[C@H](C)[C@@H](O)[C@]1(C)O [Azithromycin] + C[C@H]1c2cccc(O)c2C(=O)C2=C(O)[C@]3(O)C(=O)C(C(N)=O)=C(O)[C@@H](N(C)C)[C@@H]3[C@@H](O)[C@@H]21 [Doxycycline]
Conditions | fitness
B. subtilis 168 [1], first compound 0.25 µg/mL, partner 0.02 µg/mL | 0.816

B. subtilis 168 [1], first compound 2 µg/mL, one replicate
Conditions | fitness
partner 0.02 µg/mL | 0.0856
partner 0.04 µg/mL | 0.0565
partner 0.08 µg/mL | 0.115

Conditions | Bliss interaction score
B. subtilis 168 [2] | -0.362
S. aureus DSM 20231 | -0.261
S. aureus Newman | -0.153
S. pneumoniae D39V | -0.139
